In patent US20250098679A1, “HERBICIDAL PYRIDONE DERIVATIVES” (SYNGENTA CROP PROTECTION AG, priority 2021, published 2025):

How the values were obtained:
Type in all cases: in vivo
Conditions in all cases: evaluated after 13 days
[1] = system: Setaria faberi (SETFA); experiment: Post-emergence Test, Setaria faberi (SETFA); set-up: key to percentage damage caused to the plant, SETFA (five-point scale): 5=81-100%, 4=61-80%, 3=41-60%, 2=21-40%, 1=0-20% damage
In short: (§1)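 Scores are percentage plant damage on a 1–5 scale (1=0-20%, 2=21-40%, 3=41-60%, 4=61-80%, 5=81-100%), read 13 days after treatment. Pots received a spray at 1000 g/ha unless otherwise stated, formulated in acetone/water (50:50) containing 0.5% Tween 20.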

[2] = system: Echinochloa crus-galli (ECHCG); experiment: Post-emergence Test, Echinochloa crus-galli (ECHCG); set-up: key to percentage damage caused to the plant, ECHCG (five-point scale): 5=81-100%, 4=61-80%, 3=41-60%, 2=21-40%, 1=0-20% damage
In short: as §1

[3] = system: Zea mays (ZEAMX); experiment: Post-emergence Test, Zea mays (ZEAMX); set-up: key to percentage damage caused to the plant, ZEAMX (five-point scale): 5=81-100%, 4=61-80%, 3=41-60%, 2=21-40%, 1=0-20% damage
In short: as §1

[4] = system: Ipomoea hederacea (IPOHE); experiment: Post-emergence Test, Ipomoea hederacea (IPOHE); set-up: key to percentage damage caused to the plant, IPOHE (five-point scale): 5=81-100%, 4=61-80%, 3=41-60%, 2=21-40%, 1=0-20% damage
In short: as §1

[5] = system: Amaranthus palmeri (AMAPA); experiment: Post-emergence Test, Amaranthus palmeri (AMAPA); set-up: key: 5=81-100%, 4=61-80%, 3=41-60%, 2=21-40%, 1=0-20% damage
In short: as §1

[6] = system: Amaranthus retoflexus (AMARE); experiment: Post-emergence Test, Amaranthus retoflexus (AMARE); set-up: key to percentage damage caused to the plant, AMARE (five-point scale): 5=81-100%, 4=61-80%, 3=41-60%, 2=21-40%, 1=0-20% damage
In short: as §1

SMILES | percentage damage caused to the plant, SETFA (five-point scale) ([1]; 1000 g/ha) | percentage damage caused to the plant, ECHCG (five-point scale) ([2]; 1000 g/ha) | percentage damage caused to the plant, ZEAMX (five-point scale) ([3]; 1000 g/ha) | percentage damage caused to the plant, IPOHE (five-point scale) ([4]; 1000 g/ha) | percentage damage caused to the plant, AMAPA (five-point scale) ([5]; 1000 g/ha) | percentage damage caused to the plant, AMARE (five-point scale) ([6]; 1000 g/ha) | percentage damage caused to the plant, ECHCG (five-point scale) ([2]; 250 g/Ha) | percentage damage caused to the plant, ZEAMX (five-point scale) ([3]; 250 g/Ha) | percentage damage caused to the plant, IPOHE (five-point scale) ([4]; 250 g/Ha) | percentage damage caused to the plant, AMAPA (five-point scale) ([5]; 250 g/Ha) | percentage damage caused to the plant, AMARE (five-point scale) ([6]; 250 g/Ha) | percentage damage caused to the plant, SETFA (five-point scale) ([1]; 250 g/Ha) | also measured
CCn1c(Cn2cc(S(C)(=O)=O)cn2)cc(=O)c(C(=O)O)c1-c1ccc(Cl)c(Cl)c1 [Compound 90, 2-(3,4-dichlorophenyl)-1-ethyl-6-[(4-methylsulfonylpyrazol-1-yl)methyl]-4-oxo-pyridine-3-carboxylic acid] | 0 | 1 (1=0-20%) | 0 | 0 | 1 (1=0-20%) | 1 (1=0-20%) | – | – | – | – | – | – | –
CCn1c(C(C)n2ccc(C(F)(F)F)n2)cc(=O)c(C(=O)O)c1-c1ccc(Cl)c(Cl)c1 (centres unmarked) [Compound 172, 2-(3,4-dichlorophenyl)-1-ethyl-4-oxo-6-[1-[3-(trifluoromethyl)pyrazol-1-yl]ethyl]pyridine-3-carboxylic acid] | 1 (1=0-20%) | – | 1 (1=0-20%) | 1 (1=0-20%) | 2 (2=21-40%) | 2 (2=21-40%) | 0 | 0 | 0 | 1 (1=0-20%) | 1 (1=0-20%) | – | –
CCn1c(Cn2cc3cc(Cl)ccc3n2)cc(=O)c(C(=O)O)c1-c1ccc(Cl)c(Cl)c1 [Compound 99, 6-[(5-chloroindazol-2-yl)methyl]-2-(3,4-dichlorophenyl)-1-ethyl-4-oxo-pyridine-3-carboxylic acid] | 0 | 0 | 1 (1=0-20%) | 1 (1=0-20%) | 0 | 0 | 1 (1=0-20%) | 0 | 0 | 0 | 0 | 0 | –
CCn1c(Cn2ccc(C(F)(F)F)n2)cc(=O)c(C(=O)O)c1-c1ccc(S(C)(=O)=O)c(Cl)c1 [Compound 129, 2-(3-chloro-4-methylsulfonyl-phenyl)-1-ethyl-4-oxo-6-[[3-(trifluoromethyl)pyrazol-1-yl]methyl]pyridine-3-carboxylic acid] | 0 | 1 (1=0-20%) | 1 (1=0-20%) | 0 | 0 | 0 | – | – | – | – | – | – | –
CCOC(=O)c1c(-c2ccc(Cl)c(Cl)c2)n(CC)c(Cn2cnc([N+](=O)[O-])n2)cc1=O [Compound 43, ethyl 2-(3,4-dichlorophenyl)-1-ethyl-6-[(3-nitro-1,2,4-triazol-1-yl)methyl]-4-oxo-pyridine-3-carboxylate] | 1 (1=0-20%) | 1 (1=0-20%) | 1 (1=0-20%) | 0 | 1 (1=0-20%) | 0 | 1 (1=0-20%) | 0 | 0 | 1 (1=0-20%) | 1 (1=0-20%) | 0 | –
CCn1c(Cn2ccnc2C2CC2)cc(=O)c(C(=O)O)c1-c1ccc(Cl)c(Cl)c1 [Compound 95, 6-[(2-cyclopropylimidazol-1-yl)methyl]-2-(3,4-dichlorophenyl)-1-ethyl-4-oxo-pyridine-3-carboxylic acid] | 1 (1=0-20%) | 1 (1=0-20%) | 1 (1=0-20%) | 1 (1=0-20%) | 1 (1=0-20%) | 0 | – | – | – | – | – | – | –
CCn1c(Cn2ccc(-c3ccc(C)cc3)n2)cc(=O)c(C(=O)O)c1-c1ccc(Cl)c(Cl)c1 [Compound 196, 2-(3,4-dichlorophenyl)-1-ethyl-4-oxo-6-[[3-(p-tolyl)pyrazol-1-yl]methyl]pyridine-3-carboxylic acid] | – | – | – | – | – | – | – | – | – | – | – | – | Post-emergence Test SETFA, percentage damage caused to the plant (five-point scale) ([1]; 1000 g/ha): 0; Post-emergence Test ECHCG, percentage damage caused to the plant (five-point scale) ([2]; 250 g/Ha (*)): 1 (1=0-20%); Post-emergence Test ZEAMX, percentage damage caused to the plant (five-point scale) ([3]; 250 g/Ha (*)): 0; Post-emergence Test ZEAMX, percentage damage caused to the plant (five-point scale) ([3]; 1000 g/ha): 1 (1=0-20%); Post-emergence Test IPOHE, percentage damage caused to the plant (five-point scale) ([4]; 250 g/Ha (*)): 0; Post-emergence Test IPOHE, percentage damage caused to the plant (five-point scale) ([4]; 1000 g/ha): 0; Post-emergence Test AMAPA, percentage damage caused to the plant (five-point scale) ([5]; 250 g/Ha (*)): 0; Post-emergence Test AMAPA, percentage damage caused to the plant (five-point scale) ([5]; 1000 g/ha): 0; Post-emergence Test AMARE, percentage damage caused to the plant (five-point scale) ([6]; 250 g/Ha (*)): 0; Post-emergence Test AMARE, percentage damage caused to the plant (five-point scale) ([6]; 1000 g/ha): 0
CCn1c(Cn2nc3ccccc3n2)cc(=O)c(C(=O)O)c1-c1ccc(Cl)c(Cl)c1 [Compound 55, 6-(benzotriazol-2-ylmethyl)-2-(3,4-dichlorophenyl)-1-ethyl-4-oxo-pyridine-3-carboxylic acid] | 1 (1=0-20%) | 2 (2=21-40%) | 1 (1=0-20%) | 3 (3=41-60%) | 3 (3=41-60%) | 0 | 2 (2=21-40%) | 0 | 0 | 1 (1=0-20%) | 1 (1=0-20%) | 0 | –
CCOC(=O)c1nccn1Cc1cc(=O)c(C(=O)O)c(-c2ccc(Cl)c(Cl)c2)n1CC [Compound 110, 2-(3,4-dichlorophenyl)-6-[(2-ethoxycarbonylimidazol-1-yl)methyl]-1-ethyl-4-oxo-pyridine-3-carboxylic acid] | 1 (1=0-20%) | 1 (1=0-20%) | 0 | 1 (1=0-20%) | 0 | 0 | – | – | – | – | – | – | –
CCn1c(Cn2cnc(Cl)c2Cl)cc(=O)c(C(=O)O)c1-c1ccc(Cl)c(Cl)c1 [Compound 126, 6-[(4,5-dichloroimidazol-1-yl)methyl]-2-(3,4-dichlorophenyl)-1-ethyl-4-oxo-pyridine-3-carboxylic acid] | 0 | 0 | 1 (1=0-20%) | 0 | 1 (1=0-20%) | 0 | 1 (1=0-20%) | 0 | 0 | 0 | 0 | 0 | –
CCn1c(Cn2cc3ccccc3n2)cc(=O)c(C(=O)O)c1-c1ccc(Cl)c(Cl)c1 [Compound 106, 2-(3,4-dichlorophenyl)-1-ethyl-6-(indazol-2-ylmethyl)-4-oxo-pyridine-3-carboxylic acid] | 1 (1=0-20%) | 1 (1=0-20%) | 0 | 3 (3=41-60%) | 1 (1=0-20%) | 1 (1=0-20%) | 2 (2=21-40%) | 0 | 0 | 0 | 0 | 0 | –
